From ChEMBL document CHEMBL5465560, “Selectivity Literature for EUbOPEN Chemogenomic Library” (2024)

How the values were obtained:
[1] = molecular target: Calcium/calmodulin-dependent protein kinase type 1B (Homo sapiens) (UniProt Q6P2M8); test: Selectivity interaction (KinomeScan (DiscoverX)) EUB0000229b PNCK; details: at 10 µM
[2] = molecular target: Tyrosine-protein kinase CSK (Homo sapiens) (UniProt P41240); test: Selectivity interaction (KinomeScan (DiscoverX)) EUB0001079a CSK; details: at 1 µM
[3] = molecular target: T1, Ephrin type-A receptor 3 (Homo sapiens) (UniProt P29320); test: Selectivity interaction (KinomeScan (DiscoverX)) EUB0000092b EPHA3; details: at 10 µM
T1 sequence (whole entry): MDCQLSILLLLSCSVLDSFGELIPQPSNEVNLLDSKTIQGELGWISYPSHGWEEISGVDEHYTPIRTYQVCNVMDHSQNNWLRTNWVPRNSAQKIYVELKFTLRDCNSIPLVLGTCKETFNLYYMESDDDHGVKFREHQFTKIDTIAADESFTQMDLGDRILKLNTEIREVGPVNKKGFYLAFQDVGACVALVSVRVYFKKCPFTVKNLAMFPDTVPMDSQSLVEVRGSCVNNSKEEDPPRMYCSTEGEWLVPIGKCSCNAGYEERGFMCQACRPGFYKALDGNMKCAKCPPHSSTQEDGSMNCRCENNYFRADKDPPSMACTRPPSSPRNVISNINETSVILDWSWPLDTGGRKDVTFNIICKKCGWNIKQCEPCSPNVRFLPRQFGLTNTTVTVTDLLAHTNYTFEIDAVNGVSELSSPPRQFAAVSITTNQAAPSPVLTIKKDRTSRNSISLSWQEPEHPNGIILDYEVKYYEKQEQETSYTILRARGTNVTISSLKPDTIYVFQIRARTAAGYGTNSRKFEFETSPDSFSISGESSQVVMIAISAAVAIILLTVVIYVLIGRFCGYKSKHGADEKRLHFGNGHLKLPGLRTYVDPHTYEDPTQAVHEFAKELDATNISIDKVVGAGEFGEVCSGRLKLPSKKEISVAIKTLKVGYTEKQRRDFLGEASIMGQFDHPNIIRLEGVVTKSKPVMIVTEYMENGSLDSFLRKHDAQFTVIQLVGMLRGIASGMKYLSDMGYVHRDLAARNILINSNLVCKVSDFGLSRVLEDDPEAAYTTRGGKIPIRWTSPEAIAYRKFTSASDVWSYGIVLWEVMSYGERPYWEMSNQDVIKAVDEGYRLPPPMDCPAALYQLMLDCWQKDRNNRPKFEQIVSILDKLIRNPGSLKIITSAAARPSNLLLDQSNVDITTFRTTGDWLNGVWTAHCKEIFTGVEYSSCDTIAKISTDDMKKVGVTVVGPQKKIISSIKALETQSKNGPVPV

[4] = molecular target: T2, Testis-specific serine/threonine-protein kinase 2 (Homo sapiens) (UniProt Q96PF2); test: Selectivity interaction (Kinase screening (Nanosyn)) EUB0000604a TSSK2
T2 sequence (whole entry): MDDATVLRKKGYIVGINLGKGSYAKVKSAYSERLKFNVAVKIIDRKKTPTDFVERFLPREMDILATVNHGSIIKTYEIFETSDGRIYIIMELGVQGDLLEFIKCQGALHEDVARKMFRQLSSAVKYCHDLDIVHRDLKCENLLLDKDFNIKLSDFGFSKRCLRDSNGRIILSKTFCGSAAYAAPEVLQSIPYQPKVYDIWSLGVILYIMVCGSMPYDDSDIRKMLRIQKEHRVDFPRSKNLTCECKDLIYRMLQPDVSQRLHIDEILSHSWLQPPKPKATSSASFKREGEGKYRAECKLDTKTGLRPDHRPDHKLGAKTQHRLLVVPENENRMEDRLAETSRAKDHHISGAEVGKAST

Aurora kinase B = Aurora kinase B (Homo sapiens, UniProt Q96GD4); test: Selectivity interaction (KinomeScan (DiscoverX)) EUB0000045b AURKB
[5] = molecular target: T3, Serine/threonine-protein kinase Sgk3 (Homo sapiens) (UniProt Q96BR1); test: Selectivity interaction (KinomeScan (DiscoverX)) EUB0001619a SGK3; details: at 1 µM
T3 sequence (whole entry): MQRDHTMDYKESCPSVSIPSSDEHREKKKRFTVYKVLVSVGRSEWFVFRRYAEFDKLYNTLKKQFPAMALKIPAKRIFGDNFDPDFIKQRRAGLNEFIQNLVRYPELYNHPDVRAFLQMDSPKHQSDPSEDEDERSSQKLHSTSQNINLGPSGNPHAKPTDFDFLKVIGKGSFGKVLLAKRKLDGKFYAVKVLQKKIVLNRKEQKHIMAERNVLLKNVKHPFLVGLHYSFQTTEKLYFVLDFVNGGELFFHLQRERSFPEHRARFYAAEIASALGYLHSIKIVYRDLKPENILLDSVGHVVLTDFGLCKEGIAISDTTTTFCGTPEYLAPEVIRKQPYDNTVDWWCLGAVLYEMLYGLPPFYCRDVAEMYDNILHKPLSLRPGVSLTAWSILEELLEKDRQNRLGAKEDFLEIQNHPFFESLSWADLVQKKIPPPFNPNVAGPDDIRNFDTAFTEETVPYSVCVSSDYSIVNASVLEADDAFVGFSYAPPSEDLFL

Sequence of Aurora kinase B (Q96GD4 whole entry): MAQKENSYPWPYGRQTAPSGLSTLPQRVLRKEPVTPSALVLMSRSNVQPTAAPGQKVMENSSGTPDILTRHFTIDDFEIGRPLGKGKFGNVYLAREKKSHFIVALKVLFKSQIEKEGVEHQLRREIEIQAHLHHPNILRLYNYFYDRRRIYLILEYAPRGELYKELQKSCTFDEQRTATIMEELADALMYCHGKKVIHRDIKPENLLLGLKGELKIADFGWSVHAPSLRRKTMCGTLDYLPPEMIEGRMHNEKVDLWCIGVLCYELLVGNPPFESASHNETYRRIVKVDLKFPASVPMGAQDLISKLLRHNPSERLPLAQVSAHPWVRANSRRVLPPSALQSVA
Sequence of Tyrosine-protein kinase CSK (Homo sapiens) (P41240 2-450 limits assumed): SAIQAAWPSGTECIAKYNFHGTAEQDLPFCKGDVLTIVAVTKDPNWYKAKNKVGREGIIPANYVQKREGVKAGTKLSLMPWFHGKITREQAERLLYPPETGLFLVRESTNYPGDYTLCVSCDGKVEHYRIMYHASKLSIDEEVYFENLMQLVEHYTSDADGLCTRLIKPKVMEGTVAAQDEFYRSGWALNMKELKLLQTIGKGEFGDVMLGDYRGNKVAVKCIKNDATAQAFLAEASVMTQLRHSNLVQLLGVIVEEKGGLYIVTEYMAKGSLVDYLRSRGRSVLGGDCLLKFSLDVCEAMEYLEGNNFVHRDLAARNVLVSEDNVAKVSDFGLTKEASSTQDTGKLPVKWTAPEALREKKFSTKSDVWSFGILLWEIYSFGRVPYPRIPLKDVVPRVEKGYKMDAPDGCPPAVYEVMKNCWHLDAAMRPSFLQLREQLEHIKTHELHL
Sequence of Calcium/calmodulin-dependent protein kinase type 1B (Homo sapiens) (Q6P2M8 whole entry): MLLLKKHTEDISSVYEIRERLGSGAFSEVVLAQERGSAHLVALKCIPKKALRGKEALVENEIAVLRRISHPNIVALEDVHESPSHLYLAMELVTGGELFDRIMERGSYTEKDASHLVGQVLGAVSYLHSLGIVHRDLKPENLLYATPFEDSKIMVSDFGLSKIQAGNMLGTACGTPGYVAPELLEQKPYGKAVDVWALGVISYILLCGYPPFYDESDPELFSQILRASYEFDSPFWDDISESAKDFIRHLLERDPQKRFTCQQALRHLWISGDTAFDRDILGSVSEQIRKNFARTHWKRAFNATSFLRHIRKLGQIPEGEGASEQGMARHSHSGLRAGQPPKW

COc1cc(N(C)c2ccnc3ccc(C(F)(F)F)cc23)cc(OC)c1OC
% binding [1]: 98%

Nc1cnc(N2CCc3cc(S(=O)(=O)Nc4c(F)cc(Cl)cc4F)cc(N4CCCC4=O)c32)nc1 [TP-020n]
% of control [2]: 99%

CCC(=O)N1CCN(c2ccc(-n3c(=O)ccc4cnc5ccc(-c6cnc7ccccc7c6)cc5c43)cc2C(F)(F)F)CC1
% of control [3]: 70%

Cc1cnc(Nc2ccc(F)cc2Cl)nc1-c1c[nH]c(C(=O)N[C@H](CO)c2cccc(Cl)c2)c1
% of inhibition [4]: 3%

C=CC(=O)Nc1cc(-n2c(=O)ccc3cnc4ccc(-c5ccc(NS(C)(=O)=O)cc5)cc4c32)ccc1C
% of control (Aurora kinase B; at 1 µM): 100% | % of control (Aurora kinase B; at 10 µM): 75%

N#Cc1cccc(-c2c[nH]c3ncnc(N4CCOCC4)c23)c1
% of control [5]: 100%
